The results in this text go back to patent US12419963B2, “Diels-Alder conjugation methods” (priority 2020, dated 2025).

One test relates to SKBR3 (Her2+) cells. In words: In vitro cytotoxicity assay (CCK8 cell viability), SKBR3. The class given is cell-based. The method, then:
(§1) In this Example, the ability of various antibody-drug conjugates and naked payloads to kill antigen-expressing tumor cells in vitro was assessed.
(§2) SKBR3 (Her2+) cells were seeded in 96 well plates at 8000 cells per well in complete growth media and grown overnight. For cell viability curves, serially diluted conjugates or naked payloads were added to the cells at final concentrations ranging from 100 nM to 5 pM and incubated for 3 days. NCI H929 and NCI H1975 (Her2−) cells were run as negative controls using similar conditions. To measure viability, cells were incubated with CCK8 (Dojindo) for the final 2 hours and the absorbance at 450 nm (OD450) was determined on a Victor (Perkin Elmer). Background OD450 levels determined from digitonin (40 nM) treated cells were subtracted from all wells and viability was expressed as a percentage of the untreated controls. IC50 values were determined from a four-parameter logistic equation over a 10-point response curve (GraphPad Prism). […] The interchain disulfide conjugates had similar IC50 values as the transglutaminase site-specific Diels-Alder conjugates. […] IC50 values are corrected for payload equivalents and the results of other transglutaminase site-specific Diels-Alder conjugates' cell viability are shown in Table 5. […]

The subject of the next test is NCI H929 (Her2−) cells. The test is described as follows: In vitro cytotoxicity assay (CCK8 cell viability), NCI H929 negative control. It counts as cell-based. As for the experimental part:
as §1, §2

Square brackets hold non-standard residues; d marks the D form. Peptide text beside a SMILES is read from it. * marks the point of attachment. Dolaproine = CO[C@@H]([C@@H]1CCCN1)[C@@H](C)C(=O)O; Dil = CC[C@H](C)[C@H](NC)[C@@H](CC(=O)O)OC; X1 = C[C@@H](N*)[C@H](O)c1ccccc1; NMeV = CN[C@H](C(=O)O)C(C)C

A word on the IC50: it is the point on the concentration scale where inhibition reaches its midpoint. For the molecule `CC[C@H](C)[C@@H]([C@@H](CC(=O)N1CCC[C@H]1[C@H](OC)[C@@H](C)C(=O)N[C@H](C)[C@H](O)c1ccccc1)OC)N(C)C(=O)[C@@H](NC(=O)[C@@H](NC)C(C)C)C(C)C` [MMAE, Monomethyl auristatin E] (H-[NMeV]V[Dil][Dolaproine]-X1), the IC50 in the test with SKBR3 (Her2+) cells (Homo sapiens, SK-BR-3, 72 h) was 31 pM; in the test with NCI H929 (Her2−) cells (Homo sapiens, NCI-H929, 72 h), 209 pM. The “% Kill” value turned out to be 97.3% with SKBR3 (Her2+) cells (SK-BR-3 cells, 3 days incubation, CCK8) and 99.7% with NCI H929 (Her2−) cells (NCI H929 cells (HER2-), 3 days incubation, CCK8).
